Legend:
[1] = molecular target: JAK1 phosphorylation (pJAK1; Y1034/Y1035) (Homo sapiens, UniProt P23458); experiment: JAK1 phosphorylation western blot in 22Rv1 cells expressing JAK1 variants; type: cell-based; settings: 22Rv1 cells transfected with WT or C817A-JAK1; independent of JAK1_C817
[2] = system: IFNα-stimulated STAT1 phosphorylation (TYK2-dependent); experiment: Phospho-STAT western blot in 22Rv1 cells expressing TYK2 variants; type: cell-based, human; settings: 2 h
[3] = system: GM-CSF stimulated STAT5 phosphorylation (JAK2-dependent); experiment: Phospho-STAT western blot in human PBMCs; type: cell-based; settings: compound 2 h, GM-CSF 15 min
[4] = system: IL-12-STAT4 signaling (TYK2/JAK2-dependent); experiment: Phospho-STAT western blot in human PBMC-derived T-blasts; type: cell-based; settings: compound 2 h, IL-12 12.5 ng/mL 15 min
[5] = system: IL-6-stimulated STAT3 phosphorylation; experiment: Phospho-STAT western blot in mouse splenocytes; type: cell-based; settings: WT mouse splenocytes
[6] = molecular target: JAK1 trans-phosphorylation (Homo sapiens, UniProt P23458); experiment: Trans-phosphorylation assay in 22Rv1 cells; type: cell-based; settings: cells expressing active WT-JAK1-FLAG; 2 µM, 2 h
[7] = system: IFNγ-stimulated STAT1 phosphorylation; experiment: Phospho-STAT western blot in 22Rv1 cells expressing JAK1 variants; type: cell-based, human; settings: WT-JAK1 transfected 22Rv1 cells; 1 μM, 2 h
[8] = molecular target: JAK1_C817 (Homo sapiens, UniProt P23458); experiment: Targeted MS-ABPP target engagement (TE50) in human cell lysates; type: binding
[9] = system: recombinant JAK1 (WT, C810A, C817A); experiment: Gel-based ABPP in 22Rv1 cells; type: binding, human; settings: 0.1 μM, 2 h, in situ
[10] = molecular target: recombinant TYK2 (WT, C838A) (Homo sapiens, UniProt P29597); experiment: Gel-based ABPP in 22Rv1 cells; type: binding; settings: 0.1 μM, 2 h, in situ
[11] = molecular target: recombinant TYK2 (WT, C838A) (Homo sapiens, UniProt P29597, C838A); experiment: Gel-based ABPP in 22Rv1 cells; type: binding; settings: 0.1 μM, 2 h, in situ
[12] = system: IFNα-stimulated STAT1 phosphorylation; experiment: HTRF phospho-STAT1 assay in human PBMCs; type: cell-based; settings: compound 2 h, IFNα 100 ng/mL 30 min
[13] = system: IFNα-stimulated STAT1 phosphorylation; experiment: Phospho-STAT western blot in 22Rv1 cells expressing JAK1 variants; type: cell-based, human; settings: cells expressing WT-, C810A-, or C817A-JAK1; 2 µM, 2 h
[14] = system: IFNα-stimulated STAT1 phosphorylation; experiment: Phospho-STAT western blot in human PBMCs; type: cell-based; settings: compound 2 h, IFNα 100 ng/mL 30 min
[15] = system: IL-6-stimulated STAT3 phosphorylation; experiment: Phospho-STAT western blot in human PBMCs; type: cell-based; settings: compound 2 h, IL-6 25 ng/mL 30 min
[16] = system: IL-2-stimulated STAT5 phosphorylation; experiment: Phospho-STAT western blot in human PBMCs; type: cell-based; settings: compound 2 h, IL-2 20 U/mL 15 min
[17] = system: αCD3/αCD28-stimulated primary human T cells (CD25, CD69); experiment: T-cell activation analysis by flow cytometry; type: cell-based; settings: αCD3/αCD28 co-stimulation, 24 h
[18] = system: primary human T cells; experiment: T-cell viability (Near IR Live/Dead stain); type: cell-based; settings: 24 h
[19] = molecular target: TYK2_C838 (Homo sapiens, UniProt P29597); experiment: Targeted MS-ABPP target engagement (TE50) in human cell lysates; type: binding; settings: read-out: target engagement value (TE50), TYK2_C838, 1 h, in vitro
[20] = system: IFNα-dependent STAT1 phosphorylation; experiment: Phospho-STAT western blot in mouse splenocytes; type: cell-based; settings: 0.01–0.1 µM
[21] = system: IL-2-dependent STAT5 phosphorylation; experiment: Phospho-STAT western blot in mouse splenocytes; type: cell-based; settings: 0.01–0.1 µM
[22] = system: GM-CSF-STAT5 signaling; experiment: Phospho-STAT western blot in mouse splenocytes; type: cell-based
[23] = system: IL-12-STAT4 signaling; experiment: Phospho-STAT western blot in mouse splenocytes; type: cell-based
[24] = In vivo pharmacokinetic analysis; settings: male, CD-1 (ICR), mouse, plasma
[25] = molecular target: JAK1_C816 (Mus musculus, UniProt P52332); experiment: In vivo target engagement in spleen by targeted MS-ABPP; settings: mice, s.c. 25 or 50 mg/kg, two doses over an 8 h period
[26] = system: IFNα-stimulated STAT1 phosphorylation; experiment: Ex vivo phospho-STAT assay, splenocytes of treated mice; type: in vivo, mouse; settings: splenocytes of mice given 25 mg/kg s.c., 2 × 4 h
[27] = system: IL-2-dependent STAT5 phosphorylation; experiment: as above; type: in vivo, mouse; settings: splenocytes of mice given 25 mg/kg s.c., 2 × 4 h
[28] = system: IL-6-STAT3 signaling; experiment: as above; type: in vivo, mouse; settings: splenocytes of mice given 25 mg/kg s.c., 2 × 4 h
[29] = system: GM-CSF-STAT5 signaling; experiment: as above; type: in vivo, mouse; settings: splenocytes of mice given 25 mg/kg s.c., 2 × 4 h
[30] = system: JAK1 (C817); settings: human T cells in situ, 50 µM, 1 h; cited from earlier work
[31] = system: TYK2 (C838); settings: human T cells in situ, 50 µM, 1 h; cited from earlier work

Chain of JAK1_C817 (P23458 whole entry): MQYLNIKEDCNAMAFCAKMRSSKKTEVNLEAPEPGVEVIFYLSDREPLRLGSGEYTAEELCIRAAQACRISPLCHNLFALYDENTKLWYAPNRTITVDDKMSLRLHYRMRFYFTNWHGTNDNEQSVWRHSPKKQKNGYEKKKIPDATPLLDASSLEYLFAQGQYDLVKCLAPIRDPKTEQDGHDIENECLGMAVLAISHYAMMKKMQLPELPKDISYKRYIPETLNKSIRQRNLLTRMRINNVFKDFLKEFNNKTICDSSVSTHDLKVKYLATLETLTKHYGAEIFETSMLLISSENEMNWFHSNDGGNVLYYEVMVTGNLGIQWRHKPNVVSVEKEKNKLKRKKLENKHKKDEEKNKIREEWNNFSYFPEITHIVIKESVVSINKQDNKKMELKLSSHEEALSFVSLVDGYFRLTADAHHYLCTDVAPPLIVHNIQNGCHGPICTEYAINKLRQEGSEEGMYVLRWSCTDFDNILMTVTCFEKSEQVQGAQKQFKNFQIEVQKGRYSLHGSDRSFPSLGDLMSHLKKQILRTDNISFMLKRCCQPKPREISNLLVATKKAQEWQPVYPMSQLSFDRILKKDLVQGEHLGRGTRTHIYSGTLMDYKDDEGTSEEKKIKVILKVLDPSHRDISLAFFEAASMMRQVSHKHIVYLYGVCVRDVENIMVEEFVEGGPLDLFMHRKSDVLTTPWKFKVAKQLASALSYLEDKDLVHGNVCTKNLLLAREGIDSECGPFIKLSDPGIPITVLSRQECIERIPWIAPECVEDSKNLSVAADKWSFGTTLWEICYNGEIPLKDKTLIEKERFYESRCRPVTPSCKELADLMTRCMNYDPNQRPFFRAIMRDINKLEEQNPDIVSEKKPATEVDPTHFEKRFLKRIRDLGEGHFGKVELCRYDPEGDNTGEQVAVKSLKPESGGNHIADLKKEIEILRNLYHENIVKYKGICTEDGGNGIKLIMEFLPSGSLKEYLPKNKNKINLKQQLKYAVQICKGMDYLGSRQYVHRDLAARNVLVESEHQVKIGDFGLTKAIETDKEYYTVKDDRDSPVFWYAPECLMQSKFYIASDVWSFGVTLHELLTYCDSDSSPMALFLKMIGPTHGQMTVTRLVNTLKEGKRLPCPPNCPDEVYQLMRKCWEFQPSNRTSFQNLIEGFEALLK
Chain of recombinant TYK2 (WT, C838A) (Homo sapiens, UniProt P29597) (P29597 whole entry C838A): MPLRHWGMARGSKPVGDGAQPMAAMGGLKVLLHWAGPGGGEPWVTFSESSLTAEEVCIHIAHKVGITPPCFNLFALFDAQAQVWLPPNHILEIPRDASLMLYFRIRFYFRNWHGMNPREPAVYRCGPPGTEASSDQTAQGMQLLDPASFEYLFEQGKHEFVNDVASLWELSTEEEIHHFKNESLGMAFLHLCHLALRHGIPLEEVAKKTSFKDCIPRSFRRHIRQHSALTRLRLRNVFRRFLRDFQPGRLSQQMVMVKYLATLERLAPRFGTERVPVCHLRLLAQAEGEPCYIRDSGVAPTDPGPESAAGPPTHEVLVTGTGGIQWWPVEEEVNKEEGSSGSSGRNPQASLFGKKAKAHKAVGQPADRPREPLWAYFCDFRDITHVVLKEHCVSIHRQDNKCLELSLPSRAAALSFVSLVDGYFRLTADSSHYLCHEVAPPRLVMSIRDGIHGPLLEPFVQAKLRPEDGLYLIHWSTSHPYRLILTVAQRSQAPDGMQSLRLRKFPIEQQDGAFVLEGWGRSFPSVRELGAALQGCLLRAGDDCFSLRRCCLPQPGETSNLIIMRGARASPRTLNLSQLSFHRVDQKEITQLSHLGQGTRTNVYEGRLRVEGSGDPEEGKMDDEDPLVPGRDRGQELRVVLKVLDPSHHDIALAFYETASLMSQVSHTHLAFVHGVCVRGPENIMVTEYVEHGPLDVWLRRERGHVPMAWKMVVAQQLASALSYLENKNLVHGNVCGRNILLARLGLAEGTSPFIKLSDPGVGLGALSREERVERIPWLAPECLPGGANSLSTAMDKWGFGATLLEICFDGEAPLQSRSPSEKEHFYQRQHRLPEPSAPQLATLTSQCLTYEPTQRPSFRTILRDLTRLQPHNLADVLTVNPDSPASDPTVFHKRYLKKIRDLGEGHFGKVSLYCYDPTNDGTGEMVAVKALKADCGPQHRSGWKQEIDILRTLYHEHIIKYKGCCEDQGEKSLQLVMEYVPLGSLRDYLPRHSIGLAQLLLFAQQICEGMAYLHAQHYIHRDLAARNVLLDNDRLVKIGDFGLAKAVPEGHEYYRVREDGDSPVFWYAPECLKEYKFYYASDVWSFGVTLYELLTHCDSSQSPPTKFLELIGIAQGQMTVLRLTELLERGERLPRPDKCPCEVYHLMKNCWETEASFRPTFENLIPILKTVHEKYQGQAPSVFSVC
Chain of recombinant TYK2 (WT, C838A) (Homo sapiens, UniProt P29597, C838A) (P29597 whole entry C838A): as above
Chain of JAK1 phosphorylation (pJAK1; Y1034/Y1035) (P23458 whole entry): as the sequence (P23458 whole entry) above
Chain of JAK1 trans-phosphorylation (P23458 whole entry): as above
Chain of TYK2_C838 (P29597 whole entry): as the sequence (P29597 whole entry C838A) above, with A838C counted along it
Chain of JAK1_C816 (P52332 whole entry): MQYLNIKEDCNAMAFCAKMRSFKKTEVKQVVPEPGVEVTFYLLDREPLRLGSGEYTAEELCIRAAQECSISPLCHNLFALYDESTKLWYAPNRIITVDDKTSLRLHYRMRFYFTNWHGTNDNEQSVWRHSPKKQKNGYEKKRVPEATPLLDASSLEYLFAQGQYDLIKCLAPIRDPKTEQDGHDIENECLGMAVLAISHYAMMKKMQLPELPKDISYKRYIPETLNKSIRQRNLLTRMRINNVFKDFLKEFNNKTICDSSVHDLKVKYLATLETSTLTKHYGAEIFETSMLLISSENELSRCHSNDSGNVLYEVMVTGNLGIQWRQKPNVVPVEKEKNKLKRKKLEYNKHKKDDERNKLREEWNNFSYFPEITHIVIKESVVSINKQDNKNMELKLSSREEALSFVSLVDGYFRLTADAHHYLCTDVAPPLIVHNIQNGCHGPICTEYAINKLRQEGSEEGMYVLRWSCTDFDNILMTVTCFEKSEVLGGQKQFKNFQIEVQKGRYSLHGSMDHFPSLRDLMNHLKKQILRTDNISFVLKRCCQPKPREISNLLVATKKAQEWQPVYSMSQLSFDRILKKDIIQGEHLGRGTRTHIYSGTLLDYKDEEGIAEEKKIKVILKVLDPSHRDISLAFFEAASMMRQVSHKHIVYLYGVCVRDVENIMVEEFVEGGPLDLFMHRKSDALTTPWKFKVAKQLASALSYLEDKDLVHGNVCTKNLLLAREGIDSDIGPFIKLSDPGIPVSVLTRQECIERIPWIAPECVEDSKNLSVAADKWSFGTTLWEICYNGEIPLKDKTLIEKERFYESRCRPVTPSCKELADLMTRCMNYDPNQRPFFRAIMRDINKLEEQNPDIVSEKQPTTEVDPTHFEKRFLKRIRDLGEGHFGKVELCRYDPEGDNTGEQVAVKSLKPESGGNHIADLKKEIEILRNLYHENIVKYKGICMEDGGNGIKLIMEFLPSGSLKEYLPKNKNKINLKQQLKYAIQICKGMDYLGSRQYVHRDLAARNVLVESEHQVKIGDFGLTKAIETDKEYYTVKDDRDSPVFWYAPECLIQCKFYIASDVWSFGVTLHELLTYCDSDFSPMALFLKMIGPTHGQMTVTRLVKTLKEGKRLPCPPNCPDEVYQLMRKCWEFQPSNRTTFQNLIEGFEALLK

Compound: deucravacitinib [BMS-986165, reference compound]
- effect on JAK1 phosphorylation [1]: suppressed
- effect on IFNα-induced STAT1 phosphorylation ([2]; C838A-TYK2 expressing 22Rv1 cells): blocked
- effect on IFNα-induced STAT1 phosphorylation ([2]; WT-TYK2 expressing 22Rv1 cells): blocked
- effect on GM-CSF stimulated STAT5 phosphorylation [3]: inactive
- effect on IL-12-STAT4 signaling [4]: inhibited
- effect on IL-6-stimulated STAT3 phosphorylation [5]: suppressed
- effect on trans-phosphorylation of inactive JAK1-HA variants [6]: blocked JAK1 trans-phosphorylation in a C817-independent manner
- effect on IFNγ-stimulated STAT1 phosphorylation [7]: Neither VVD-118313 nor the TYK2 inhibitor BMS-986165 altered

Compound: CS(=O)(=O)N1CC[C@@H](C#CC(=O)N2CCC[C@H](c3ccc(Cl)c(Cl)c3)C2)C1 [5b]
- change of TE50 with preincubation time ([8]; Jurkat T-cell lysate, 10, 30 and 60 minutes): time-dependent decreases
- potency compared with the corresponding diastereomers (5c and 5d) ([8]; TE50 and pSTAT pIC50): substantially more potent

Compound: C#CCCS(=O)(=O)N1CCC(C#CC(=O)N2CCCC(c3ccc(Cl)c(Cl)c3)C2)C1 (stereo not drawn) [alkyne probe 6]
- probe labeling of WT- and C810A-JAK1 [9]: reacted
- probe labeling of WT-TYK2 [10]: reacted
- probe labeling of C838A-TYK2 [11]: but not a C838A-TYK2 mutant

Compound: CC#CC(=O)N1CCCC(c2ccc(Cl)cc2)C1 (stereo not drawn) [compound 1]
- target engagement value (TE50), JAK1_C817 ([8]; 1 h compound treatment of human PBMC or Jurkat cell proteome): ~two-fold less active
- IC50, IFNα-stimulated STAT1 phosphorylation (HTRF) [12]: ~two-fold less active

Compound: C[C@@H]1CCN(C(=O)CC#N)C[C@@H]1N(C)c1ncnc2[nH]ccc12 [tofacitinib, reference compound]
- effect on IFNα-stimulated pSTAT1 [13]: equivalently blocked
- effect on IFNα-pSTAT1 [14]: blocked
- effect on IL-6-pSTAT3 [15]: blocked
- effect on IL-2-pSTAT5 [16]: blocked
- effect on IL-6-stimulated STAT3 phosphorylation [5]: suppressed
- effect on IFNγ-stimulated STAT1 phosphorylation [7]: completely inhibited
- early-stage activation marker CD69 [17]: Neither compound affected
- T-cell viability [18]: Neither compound affected

Compound: CC[C@@H]1CN(C(=O)NCC(F)(F)F)C[C@@H]1c1cnc2cnc3[nH]ccc3n12 [upadacitinib, reference compound]
- effect on IL-6-stimulated STAT3 phosphorylation [5]: suppressed
- effect on IFNγ-stimulated STAT1 phosphorylation [7]: completely inhibited

Compound: CC#CC(=O)N1CCCC(c2ccc(Cl)cc2)C1 (single isomer, unassigned; (-)) [(−)-1a]
- IC50 ([8]; read-out: target engagement value (TE50), JAK1_C817, 1 h compound treatment of human PBMC or Jurkat cell proteome): 2100 nM
- IC50 [19]: 45000 nM
- IC50 ([12]; read-out: IC50, IFNα-stimulated STAT1 phosphorylation (HTRF)): 1400 nM

Compound: CS(=O)(=O)N1CCC(C#CC(=O)N2CCCC(c3ccc(Cl)c(Cl)c3)C2)C1 (stereo not drawn) [compound 5]
- effect on IFNα-pSTAT1 [14]: potently inhibited
- effect on IL-6-pSTAT3 [15]: potently inhibited
- effect on IL-2-pSTAT5 [16]: potently inhibited
- effect on GM-CSF stimulated STAT5 phosphorylation [3]: sparing
- effect on IL-12-STAT4 signaling [4]: sparing
- effect on IFNα-dependent STAT1 phosphorylation [20]: inhibited
- effect on IL-2-dependent STAT5 phosphorylation [21]: inhibited
- effect on GM-CSF-STAT5 signaling [22]: sparing
- effect on IL-12-STAT4 signaling [23]: sparing
- AUC(0-t) ([24]; iv, 1 mg/kg): 149 ng·h/mL
- Cmax ([24]; iv, 1 mg/kg): 1610 ng/mL
- clearance ([24]; iv, 1 mg/kg): 112 mL/min/kg
- half-life ([24]; iv, 1 mg/kg): 9.18 min
- AUC(0-t) ([24]; sc, 25 mg/kg): 2930 ng·h/mL
- Cmax ([24]; sc, 25 mg/kg): 3380 ng/mL
- bioavailability ([24]; sc, 25 mg/kg): 78.3%
- half-life ([24]; sc, 25 mg/kg): 21.6 min
- engagement of JAK1_C816 in spleen [25]: 75%
- IFNα-stimulated STAT1 phosphorylation vs vehicle-treated mice [26]: substantial impairments
- IL-2-dependent STAT5 phosphorylation vs vehicle-treated mice [27]: not substantially altered
- IL-6-STAT3 signaling vs vehicle-treated mice [28]: unaffected
- GM-CSF-STAT5 signaling vs vehicle-treated mice [29]: unaffected

Compound: C=CC(=O)N(c1ccccc1)c1ccc(Br)cc1 [KB05]
- engagement of JAK1 C817 [30]: substantially engaged
- engagement of TYK2 C838 [31]: substantially engaged

Compound: COc1ccc2c(c1)CCCN2C(=O)CCl [KB02]
- engagement of JAK1 C817 [30]: substantially engaged
- engagement of TYK2 C838 [31]: substantially engaged

From PMC7614775 (Nature chemical biology, 2022)
